Results from patent US12466813B2, “PRC1 inhibitors and methods of treatment therewith” (The Regents of the University of Michigan, priority 2018, dated 2025).

target: T1, RING1B-BMI1 (Homo sapiens, UniProt Q99496); experiment: KD classes of Table A (direct binding to Ring1B-Bmi1); settings: class given in Table A
T1 sequence (Q99496 1-336): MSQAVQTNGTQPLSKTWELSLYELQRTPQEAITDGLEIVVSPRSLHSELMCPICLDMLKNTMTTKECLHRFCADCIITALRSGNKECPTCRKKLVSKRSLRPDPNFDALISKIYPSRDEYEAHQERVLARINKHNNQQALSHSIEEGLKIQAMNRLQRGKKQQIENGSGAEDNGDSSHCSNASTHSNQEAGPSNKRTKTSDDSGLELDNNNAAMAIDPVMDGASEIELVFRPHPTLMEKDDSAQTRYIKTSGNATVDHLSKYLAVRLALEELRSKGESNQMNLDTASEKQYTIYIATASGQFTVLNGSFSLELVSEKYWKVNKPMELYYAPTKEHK
T1 sequence (P35226 1-326 partner): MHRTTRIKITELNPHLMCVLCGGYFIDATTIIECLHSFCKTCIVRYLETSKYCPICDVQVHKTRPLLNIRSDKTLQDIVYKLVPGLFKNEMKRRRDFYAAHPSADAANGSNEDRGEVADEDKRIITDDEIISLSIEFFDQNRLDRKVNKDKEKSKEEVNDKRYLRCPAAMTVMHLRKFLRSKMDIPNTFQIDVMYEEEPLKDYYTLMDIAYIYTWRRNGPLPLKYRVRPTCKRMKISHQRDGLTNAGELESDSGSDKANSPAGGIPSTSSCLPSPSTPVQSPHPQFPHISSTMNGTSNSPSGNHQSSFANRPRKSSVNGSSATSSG
Experimental: Experiments were conducted during development of embodiments herein to develop small molecule inhibitors of PRC1 by targeting the Ring1B-BMI1 E3 ligase. These compounds bind directly to Ring1B-Bmi1 with low-micromolar affinity and inhibit PRC1 in vitro and in cells. […] Experiments were conducted during development of embodiments herein to test COMPOUND 1 in leukemia stem cell models represented by TEX cells (Ref. 22; herein incorporated by reference in its entirety) and M9-ENL1 cells (Ref. 23; herein incorporated by reference in its entirety). […] In some embodiments, COMPOUND 1 and COMPOUND 1 analogs are find use as agents in targeting leukemia and other cancer stem cells.
The compounds listed in Table A have been synthesized and/or tested for activity in inhibiting activity of PRC1 complex, and are within the scope herein.

SMILES | Kd
CCc1c(C(=O)O)[nH]c(-c2cccc3c2ccn3C)c1CC [compound 111] | > 100 µM
CCc1c(C(=O)O)[nH]c(-c2cccc3[nH]ccc23)c1-c1ccccc1 [compound 113] | > 100 µM
O=C(O)c1[nH]c(-c2cccc3[nH]ccc23)c2c1CCCC2 [compound 115] | > 100 µM
Cc1cc(-c2cccc3c2ccn3C)[nH]c1C(=O)O [compound 117] | > 100 µM
Cc1cc(C(=O)O)[nH]c1-c1cccc2[nH]ccc12 [compound 121] | > 100 µM
Nc1cccc(-c2ccc(C(=O)O)[nH]2)c1 [compound 125] | > 100 µM
O=C(O)c1ccc(-c2cccc(OCC3CC3)c2)[nH]1 [compound 131] | > 100 µM
CC(C)CCOc1cccc(-c2ccc(C(=O)O)[nH]2)c1 [compound 132] | > 100 µM
O=C(O)c1ccc(-c2ccccc2Oc2ccccc2)[nH]1 [compound 136] | > 100 µM
COc1ccc(C)cc1-c1ccc(C(=O)O)[nH]1 [compound 137] | > 100 µM
O=C(O)c1ccc(-c2cccc(Oc3ccccc3)c2)[nH]1 [compound 139] | > 100 µM
CCOc1ccccc1-c1ccc(C(=O)O)[nH]1 [compound 140] | > 100 µM
COc1ccccc1-c1ccc(C(=O)O)[nH]1 [compound 142] | > 100 µM
O=C(O)c1ccc(-c2ccc(Cl)cc2)[nH]1 [compound 143] | > 100 µM
O=C(O)c1ccc(-c2cccc3c2ccn3CCO)[nH]1 [compound 146] | > 100 µM
Nc1ccccc1-c1ccc(C(=O)O)[nH]1 [compound 147] | > 100 µM
O=C(O)c1ccc(-c2ccc(C(F)(F)F)cc2)[nH]1 [compound 150] | > 100 µM
Cc1ccc(-c2ccc(C(=O)O)[nH]2)cc1 [compound 151] | > 100 µM

SMILES | Kd
O=C(O)c1ccc(-c2ccccc2)s1 [compound 152] | > 100 µM
NCCn1ccc2c(-c3ccc(C(=O)O)[nH]3)cccc21 [compound 153] | > 100 µM
Cc1ccccc1-c1ccc(C(=O)O)[nH]1 [compound 154] | > 100 µM
COc1ccc(OC)c(-c2ccc(C(=O)O)[nH]2)c1 [compound 155] | > 100 µM
COC(=O)c1ccc(-c2ccccc2)[nH]1 [compound 158] | > 100 µM
O=C(O)c1ccc(-c2cccc3ncccc23)[nH]1 [compound 160] | > 100 µM
CCOC(=O)c1[nH]c(-c2c(OC)cccc2OC)c(CC)c1-c1ccc(OC)cc1Cl [compound 164] | > 100 µM
CCC(C)c1c(-c2cc(F)cc3[nH]ccc23)[nH]c(C(=O)O)c1-c1cc(OC)cc2[nH]ccc12 (stereo not shown) [compound 171] | < 20 µM
CC(C)c1c(-c2cc(F)cc3[nH]ccc23)[nH]c(C(=O)O)c1-c1cccc2scnc12 [compound 172] | < 20 µM
COc1cc(-c2c(C(=O)O)[nH]c(-c3cc(F)cc4[nH]ccc34)c2C2CCCC2)c2cc[nH]c2c1 [compound 173] | < 20 µM
COc1cc(-c2c(C(=O)O)[nH]c(-c3cc(F)cc4[nH]ccc34)c2CC(C)C)c2cc[nH]c2c1 [compound 174] | < 20 µM
COc1cc(-c2c(C(=O)O)[nH]c(-c3cc(F)cc4[nH]ccc34)c2C(C)C)c2ccn(CC(N)=O)c2c1 [compound 175] | < 20 µM
COc1cc(-c2c(C(=O)O)[nH]c(-c3cc(F)cc4[nH]ccc34)c2C(C)C)c2ccn(CCNC(=O)c3nccs3)c2c1 [compound 177, 5-(6-fluoro-1H-indol-4-yl)-4-isopropyl-3-(6-methoxy-1-(2-(thiazole-2-carboxamido)ethyl)-1H-indol-4-yl)-1H-pyrrole-2-carboxylic acid] | < 20 µM
CCCC(=O)NCCn1ccc2c(-c3c(C(=O)O)[nH]c(-c4cc(F)cc5[nH]ccc45)c3C(C)C)cc(OC)cc21 [compound 180] | < 20 µM
CC(C)c1c(-c2ccc3cc[nH]c3c2)[nH]c(C(=O)O)c1-c1c(Cl)ccc2[nH]ccc12 [compound 182, 3-(5-chloro-1H-indol-4-yl)-5-(1H-indol-6-yl)-4-isopropyl-1H-pyrrole-2-carboxylic acid] | < 20 µM
CCn1ccc2cc(-c3[nH]c(C(=O)O)c(-c4c(Cl)ccc5[nH]ccc45)c3C(C)C)ccc21 [compound 184] | < 20 µM
CC(C)CCc1c[nH]c2cccc(-c3c(C(=O)O)[nH]c(-c4cc(F)cc5[nH]ccc45)c3C(C)C)c12 [compound 188] | < 20 µM

Other lines, results leading:

Kd | SMILES
> 100 µM | CCc1c(-c2cccc3c2ccn3C)[nH]c(C(=O)O)c1-c1ccc(OC)cc1 [compound 108]
> 100 µM | CCc1c(-c2cccc3c2ccn3C)[nH]c(C(=O)O)c1-c1ccc(F)c(C)c1 [compound 109]
> 100 µM | Cn1ccc2c(-c3[nH]c(C(=O)O)c4c3CCCC4)cccc21 [compound 110]
> 100 µM | CCc1c(C(=O)O)[nH]c(-c2cccc3[nH]ccc23)c1CC [compound 112]
> 100 µM | CCc1c(-c2cccc3[nH]ccc23)[nH]c(C(=O)O)c1-c1ccc([N+](=O)[O-])cc1 [compound 114]
> 100 µM | Cc1cc(C(=O)O)[nH]c1-c1cccc2c1ccn2C [compound 116]
> 100 µM | O=C(O)c1cc(-c2ccccc2)c(-c2cccc3[nH]ccc23)[nH]1 [compound 118]
> 100 µM | O=C(O)c1ccc(-c2cccc3c2ccn3C2CC2)[nH]1 [compound 119]
> 100 µM | Cc1cc(-c2cccc3[nH]ccc23)[nH]c1C(=O)O [compound 120]
> 100 µM | CCn1ccc2c(-c3ccc(C(=O)O)[nH]3)cccc21 [compound 122]
> 100 µM | Cn1c(C(=O)O)ccc1-c1cccc2[nH]ccc12 [compound 123]
> 100 µM | CC(C)CCn1ccc2c(-c3ccc(C(=O)O)[nH]3)cccc21 [compound 124]
> 100 µM | O=C(O)c1ccc(-c2cccc3[nH]ncc23)[nH]1 [compound 126]
> 100 µM | Cn1ccc2c(-c3ccc(C(=O)O)[nH]3)cccc21 [compound 127]
> 100 µM | Cc1cccc(-c2ccc(C(=O)O)[nH]2)c1 [compound 128]
> 100 µM | CCc1cccc(-c2ccc(C(=O)O)[nH]2)c1 [compound 129]
> 100 µM | O=C(O)c1ccc(-c2ccccc2O)[nH]1 [compound 130]
> 100 µM | COc1cc(OC)cc(-c2ccc(C(=O)O)[nH]2)c1 [compound 133]
> 100 µM | O=C(O)c1ccc(-c2cccc3[nH]ccc23)[nH]1 [compound 134]

Kd | SMILES
> 100 µM | O=C(O)c1ccc(-c2cccc(OCc3ccccc3)c2)[nH]1 [compound 135]
> 100 µM | O=C(O)c1ccc(-c2ccccc2OCc2ccccc2)[nH]1 [compound 138]
> 100 µM | COc1cccc(-c2ccc(C(=O)O)[nH]2)c1 [compound 141]
> 100 µM | O=C(O)c1ccc(-c2ccccc2)[nH]1 [compound 144]
> 100 µM | NC(=O)c1ccc(-c2cccc3[nH]ccc23)[nH]1 [compound 145]
> 100 µM | CCOc1cccc(-c2ccc(C(=O)O)[nH]2)c1 [compound 148]
> 100 µM | O=C(O)c1ccc(-c2cccc(O)c2)[nH]1 [compound 156]
> 100 µM | COc1ccc(-c2ccc(C(=O)O)[nH]2)cc1 [compound 157]
> 100 µM | O=C(O)c1ccc(-c2ccc(-c3ccccc3)cc2)s1 [compound 159]
> 100 µM | CCCCc1c(-c2cccc3[nH]ccc23)[nH]c(C(=O)O)c1-c1ccccc1Cl [compound 162]
> 100 µM | CCOC(=O)c1[nH]c(-c2cccc3[nH]ncc23)c(CC)c1-c1ccc(OC)cc1Cl [compound 163]
< 20 µM | COCCC(=O)NCCn1ccc2c(-c3c(C(=O)O)[nH]c(-c4cc(F)cc5[nH]ccc45)c3C(C)C)cc(OC)cc21 [compound 176]
< 20 µM | COc1cc(-c2c(C(=O)O)[nH]c(-c3cc(F)cc4[nH]ccc34)c2C(C)C)c2ccn(CCNC(=O)Cc3cscn3)c2c1 [compound 178]
< 20 µM | COc1cc(-c2c(C(=O)O)[nH]c(-c3cc(F)cc4[nH]ccc34)c2C(C)C)c2ccn(CC(=O)NCc3nc(C)cs3)c2c1 [compound 179]
< 20 µM | CC(C)c1c(-c2ccc3[nH]ccc3c2)[nH]c(C(=O)O)c1-c1c(Cl)ccc2[nH]ccc12 [compound 181]
< 20 µM | COc1cc(-c2c(C(=O)O)[nH]c(-c3cc(F)cc4[nH]ccc34)c2C(C)C)c2c(C)c[nH]c2c1 [compound 183]
< 20 µM | CC(C)c1c(-c2cc(F)cc3cc[nH]c23)[nH]c(C(=O)O)c1-c1c(Cl)ccc2[nH]ccc12 [compound 185]
< 20 µM | CCc1c[nH]c2cc(OC)cc(-c3c(C(=O)O)[nH]c(-c4cc(F)cc5[nH]ccc45)c3C(C)C)c12 [compound 186]
< 20 µM | CC(C)c1c(-c2cc(F)cc3[nH]ccc23)[nH]c(C(=O)O)c1-c1cccc2[nH]cc(CCO)c12 [compound 187]
